Reference: patent US9067970B2, “Anticancer agents comprising peptides with cancer-specific toxicity” (Korea Advanced Institute of Science and Technology, priority 2010, dated 2015)
Where no end group is shown, it is not given here.

Columns and labels:
human erythrocyte = assay: Disruption of human erythrocytes (absorbance); conditions: peptide 10-200 μg/ml, 30 min, FIG. 3
Method: (§2) In order to test toxicity of the synthesized NKC and NRC peptides on normal cells, each of the cultured human embryo fibroblast (FSF), human keratinocyte (HaCat) and human erythrocyte was treated with the synthesized peptide, and the viability of each cell was analyzed.
Meanwhile, PBS was added to erythrocytes obtained from the human blood, and diluted 1,000-fold. Each of the synthesized peptides, a known anticancer peptide, buforin IIb, and a known non-cytotoxic peptide, magainin 2 was added thereto at a concentration of 10, 25, 50, 100 or 200 μg/ml. After 30 min, disruption of erythrocytes was determined by the difference in absorbance using spectrometry (FIG. 3). In this connection, an experimental group treated with PBS only was used as a control group.

[1] = test system: human keratinocyte (HaCat); assay: MTT viability of normal human keratinocyte (HaCat) cells; conditions: peptide 10-200 μg/ml, 4 days, FIG. 2
Method: as §2
(§3) In detail, each 1×10^4 of FSF and HaCat cells was aliquoted to a 96-well plate, and cultured for 24 hrs. Subsequently, each of the synthesized peptides, a known anticancer peptide, buforin IIb, and a known non-cytotoxic peptide, magainin 2 was added thereto at a concentration of 10, 25, 50, 100 or 200 μg/ml, and then the cells were cultured for 4 days. Thereafter, MTT (3-[4,5-dimethylthiazol-2-yl]-2,5-diphenyltetrazolium bromide) was added, and color development was detected using a spectrophotometer to count the number of surviving cells. On the basis of this, viability of each cell was calculated (FIGS. 1 and 1b). In this connection, an experimental group treated with PBS only was used as a control group.

[2] = test system: human embryo fibroblast (FSF); assay: MTT viability of normal human embryo fibroblast (FSF) cells; conditions: peptide 10-200 μg/ml, 4 days, FIG. 1
Method: as §2, §3

normal FSF cells = assay: Fluorescence microscopy of FITC-labeled peptide, FSF cells; format: cell-based, human; conditions: 20 μg/ml, 1 hr, fluorescence microscope, FIG. 10
Method: (§1) To reconfirm the cell selectivity of the peptides of the present invention, each 2×10^5 of normal FSF and HaCat cells, and SM-MEL-5 cell line, HeLa cell line and HCT-116 cell line as cancer cells were cultured at 37° C. overnight, and FITC (fluorescein isothiocyanate)-labeled peptides, buforin IIB and magainin 2 were added thereto at a concentration of 20 μg/ml, followed by incubation for 1 hr. Each cell or cell line was washed with PBS, and observed under a fluorescence microscope (FIG. 10).

normal HaCat cells = assay: Fluorescence microscopy of FITC-labeled peptide, HaCat cells; format: cell-based, human; conditions: 20 μg/ml, 1 hr, fluorescence microscope, FIG. 10
Method: as §1

SM-MEL-5 cell line = assay: Fluorescence microscopy of FITC-labeled peptide, SM-MEL-5 cell line; format: cell-based, human; conditions: 20 μg/ml, 1 hr, fluorescence microscope, FIG. 10
Method: as §1

HeLa cell line = assay: Fluorescence microscopy of FITC-labeled peptide, HeLa cell line; format: cell-based, human; conditions: 20 μg/ml, 1 hr, fluorescence microscope, FIG. 10
Method: as §1

HCT-116 cell line = assay: Fluorescence microscopy of FITC-labeled peptide, HCT-116 cell line; format: cell-based, human; conditions: 20 μg/ml, 1 hr, fluorescence microscope, FIG. 10
Method: as §1

K-562 cancer cell line [3] = assay: Competitive binding assay with ganglioside, phosphatidylserine or heparin (MTT viability); format: cell-based, human; conditions: peptide 10 μg/ml, 48 hrs
Text: Accordingly, the present inventors assumed that external addition of ganglioside, phosphatidylserine, and heparin to the cancer cell culture media causes dispersion of the peptides of the present invention in the cancer cell surface and the negatively charged materials added to the culture media, whereby the anticancer activity is reduced by the addition of negatively charged materials in a concentration-dependent manner.
In detail, the K-562 cancer cell line was aliquoted to each well of 96-well plate at a density of 1×10^4, and each well was treated with 1 to 100 μg/ml of heparin, phosphatidylserine or ganglioside, and 10 μg/ml of the peptides of the present invention, buforin IIb and magainin 2, followed by cultivation for 48 hrs. Cell viability was measured in the same manner as in Example 1 (MTT assay) (FIGS. 13 to 15).

K-562 cancer cell line [4] = assay: Anticancer activity on cancer cells lacking ganglioside (PMPP, MTT viability); format: cell-based, human; conditions: peptide 10 μg/ml, PMPP 0, 2 and 4 μM, 48 hrs, FIG. 16
Method: In detail, the K-562 cancer cell line was aliquoted to each well of 96-well plate at a density of 1×10^4, and each well was treated with an inhibitor of ganglioside biosynthesis, PMPP at the concentration of 0, 2 and 4 μM, and then treated with 10 μg/ml of the peptides of the present invention, buforin IIb and magainin 2, followed by cultivation for 48 hrs. Cell viability was measured in the same manner as in Example 1 (MTT assay) (FIG. 16).

Substance	viability of erythrocytes (toxicity on normal cells) (human erythrocyte)	viability of HaCat cells (toxicity on normal cells) [1]	viability of FSF cells (toxicity on normal cells) [2]	detection of FITC-labeled peptide in normal FSF cells (normal FSF cells)	detection of FITC-labeled peptide in normal HaCat cells (normal HaCat cells)	detection of FITC-labeled peptide in SM-MEL-5 cell line (SM-MEL-5 cell line)	detection of FITC-labeled peptide in HeLa cell line (HeLa cell line)	detection of FITC-labeled peptide in HCT-116 cell line (HCT-116 cell line)	cell viability with external addition of ganglioside (K-562 cancer cell line [3]; ganglioside 1 to 100 μg/ml, FIG. 13)	cell viability with external addition of heparin (K-562 cancer cell line [3]; heparin 1 to 100 μg/ml, FIG. 15)	cell viability with external addition of phosphatidylserine (K-562 cancer cell line [3]; phosphatidylserine 1 to 100 μg/ml, FIG. 14)	viability of cancer cells with increasing concentration of inhibitor of ganglioside biosynthesis (K-562 cancer cell line [4])
APKAMKLLKKLLKLQKKGI-NH2 [NKC, APKAMKLLKKLLKLQKKGI-amine]	little toxicity	little toxicity	little toxicity	–	–	–	–	–	–	–	–	–
magainin 2	–	–	–	not detected	not detected	not detected	not detected	not detected	–	–	–	–
buforin IIb	–	–	–	rarely detected	at a predetermined level	in a large quantity	in a large quantity	in a large quantity	high cell viability	high cell viability	high cell viability	increased
APKAMRLLRRLLRLQKKGI-NH2 [NRC, APKAMRLLRRLLRLQKKGI-amide]	little toxicity	little toxicity	little toxicity	–	–	–	–	–	–	–	–	–
